From patent US12187672B2, “1,2-diacylglycerol compound, preparation method therefor, and immunomodulator containing same as active ingredient” (ENZYCHEM LIFESCIENCES CORPORATION, priority 2018, dated 2025)

Key:
HL-60 cells = assay: Migration of HL-60 cell line toward THP-1 culture supernatant (transmigration assay); assay type: cell-based, human; conditions: supernatant of THP-1 cells treated with sample 100 μg/ml 1 h, then Gemcitabine 2 μg/ml 24 h
Description: In RPMI (Hyclone, Thermo Scientific) medium to which 10% Fetal Bovine Serum was added, THP-1 cells, a human macrophage family, were subcultured at a concentration of 1×10^5 cells/ml, and culture was conducted in a 5% CO2 humidified incubator at 37° C. In order to prepare the THP-1 cell culture solution to be treated in the lower well during the transmigration assay, first, the cultured THP-1 cells were inoculated into a 12 well plate by 1×10^6 cells/ml and stabilized for 30 minutes. Then, the culture solution was treated with a glycerol derivative compounds of the type shown in Table 7 below for 1 hour and then was treated with Gemcitabine (2 μg/ml) of a cell stimulator, and subsequent further incubation was conducted for 24 hours. Thereafter 1.5 ml of the culture supernatant was collected for each well and centrifuged (at 3000 rpm, 5 minutes) to recover the supernatant. The CXCL8 (IL-8) level in the recovered supernatant was measured according to the manual provided by Cultrex 96 well Laminin Cell Invasion assay. The day before Transmigration assay was carried out, a 1× Lamin I solution was treated in the upper Invasion Chamber and coated. Thereafter, in RPMI (Hyclone, Thermo Scientific) medium to which 10% Fetal Bovine Serum was added, the cultured HL-60 cells were despensed of 5×10^4 cells/chamber, and 150 μl of the THP-1 culture supernatant prepared in advance was added to the lower chamber. Thereafter the upper chamber was removed, and the cells were attached to the bottom of the lower chamber by a centrifuge, and then the supernatant was removed. Cell dissociation/Calcein-AM solution was added and reacted for 1 hour. Then, the value obtained using a fluorescence spectroscopy was calculated by converting the number of cells.

STAT6 = assay: IL-4-induced STAT6 activity, pGL4-STAT6 luciferase reporter in A549 cells; assay type: cell-based; conditions: sample 100 μg/ml 1 h, then IL-4 (2 ng/ml) 20 h, Table 9
Description: In DMEM (Dulbecco Modified Eagle Medium, Hyclone, Thermo Scientific) medium to which 10% Fetal Bovine Serum was added, A549 cells were subcultured at a concentration of 1×10^5 cells/ml, and culture was conducted in a 5% CO2 humidified incubator at 37° C. The cultured A549 cells were inoculated into a 48 well plate by 1×10^5 cells/ml and stabilized for 18 hours. Thereafter, pGL4-STAT6 reporter vector containing a STAT6 binding promoter portion was mixed with Attractene to induce complex formation at room temperature for 15 minutes. This complex was treated with the cells and then further incubated for 24 hours. Thereafter, the culture solution was treated with a glycerol derivative compounds of the type shown in Table 9 and 10 below for 1 hour, and then IL-4 (2 ng/ml or 10 ng/ml) was further incubated for 20 hours for STAT6 activity. Thereafter, the culture supernatant was removed for each well, and the remaining cells were lysed with a cell lysis buffer, and then cell lysate was recovered. 90 μl of luciferase reagent was mixed with 10 μl of the recovered cell lysate, and the degree of fluorescence was confirmed using a luminometer. The results are shown in Table 9, Table 10, FIG. 9 and FIG. 10 below.

IL-6 = assay: LPS-induced IL-6 secretion reduction in RAW264.7 cells (ELISA); assay type: cell-based, mouse; conditions: sample 100 μg/ml 1 h, then LPS 1 μg/ml 24 h, Table 2
Description: In DMEM (Dulbecco Modified Eagle Medium, Hyclone, Thermo Scientific) medium to which 10% Fetal Bovine Serum was added, RAW264.7 cells, a mouse macrophage family, were suspended at a concentration of 1×10^5 cells/ml, and culture was conducted in a 5% CO2 humidified incubator at 37° C. The cultured RAW264.7 cells were inoculated into a 48 well plate by 5×10^4 cells/ml and stabilized for 15 hours. Then, the culture solution was treated with a glycerol derivative compounds of the type shown in Table 2 and 3 below for 1 hour and then was treated with 1 μg/ml of Lipopolysaccaride (LPS) of a cell stimulator, and subsequent further incubation was conducted for 24 hours. Thereafter 0.5 ml of the culture supernatant was collected for each well and centrifuged (at 3000 rpm, 5 minutes) to recover the supernatant. The IL-6 level in the recovered supernatant was measured according to the manual provided by the Mouse IL-6 ELISA set (BD Biosciences). The day before ELISA was carried out, the IL-6 capture antibody was diluted in phosphate buffered saline, coated on a microwell, and then stored at 4° C. overnight. Each well was washed three times with a buffer solution and then blocked with 2% Bovine Serum Albumin (BSA) for 1 hour at room temperature. After washing with buffer solution three times, […] of sample was dispensed into each well and left at room temperature for 2 hours. Detection antibody which was washed 3 times with washing buffer solution and diluted was dispensed into each well and allowed to react at room temperature for 1 hour and left at room temperature for 1 hour. Thereafter, the secondary HRP conjugated antibody was reacted at room temperature for 30 minutes, washed three times with a buffer solution, and treated with 50 μl of stop solution for each well, and then the optical density was measured at 450 nm with an ELISA microplate leader. The results of the IL-6 expression reduction rate (IL-6 concentration) are shown in Table 2, Table 3, FIG. 1 and FIG. 2 below.

STAT3 = assay: IL-6-induced STAT3 activity, SEAP expression in HEK-Blue IL-6 cells; assay type: cell-based; conditions: for decrease of STAT3 activity compared to the IL-6 cytokine-treated group / STAT3 activity_SEAP expression(%) (average ± deviation): HEK-Blue IL-6 cells; for decrease of STAT3 activity compared to the IL-6 cytokine-treated group: 100 μg/ml; for STAT3 activity_SEAP expression(%) (average ± deviation): negative control = 100
Description: HEK-Blue™ IL-6 cells were used to confirm STAT3 activity by STAT3-induced SEAP (secreted embryonic alkaline phosphatase) expression. In DMEM (Hyclone, Thermo Scientific) medium to which 10% Fetal Bovine Serum was added, HEK-Blue™ IL-6 cells were cultured at a concentration of 1×10^5 cells/ml, and maintained in a 5% CO2 humidified incubator at 37° C. The cultured HEK-Blue™ IL-6 cells were inoculated by 1×10^5 cells/ml. Then, the culture solution was treated with a glycerol derivative compounds of the type shown in Table 4 below for 1 hour and then IL-6 (5 ng/ml) was further incubated for 24 hours for STAT3 activity. Thereafter, the culture supernatant was collected for each well and centrifuged (at 3000 rpm, 5 minutes) to recover the supernatant. The SEAP expression level in the recovered supernatant was mixed with Quanti blue reagent and the supernatant at a ratio of 1:10 and left at 37° C. for about 30 minutes. Then, the SEAP concentration was confirmed at 650 nm wavelength using a spectrophotometer, and the results (STAT3 activity inhibitory ability) thereof are shown in Table 4 and FIG. 3 below.

CXCL8 (IL-8) = CXCL8 (IL-8) expression reduction in Gemcitabine-treated THP-1 cells (ELISA); assay type: cell-based, human; conditions: THP-1 cells; for CXCL8 [IL-8] concentration (average ± deviation): sample 100 μg/ml 1 h, then Gemcitabine 2 μg/ml 24 h
Description: In RPMI (Hyclone, Thermo Scientific) medium to which 10% Fetal Bovine Serum was added, THP-1 cells, a human macrophage family, were suspended at a concentration of 1×10^5 cells/ml, and culture was conducted in a 5% CO2 humidified incubator at 37° C. The cultured THP-1 cells were inoculated into a 12 well plate by 1×10^6 cells/ml and stabilized for 30 minutes. Then, the culture solution was treated with a glycerol derivative compounds of the type shown in Table 6 below for 1 hour and then was treated with Gemcitabine (2 μg/ml) of a cell stimulator, and subsequent further incubation was conducted for 24 hours. Thereafter 1.5 ml of the culture supernatant was collected for each well and centrifuged (at 3000 rpm, 5 minutes) to recover the supernatant. The CXCL8 (IL-8) level in the recovered supernatant was measured according to the manual provided by the human IL-8 ELISA set (BD Biosciences). The day before ELISA was carried out, the IL-8 capture antibody was diluted in phosphate buffered saline, coated on a microwell, and then stored at 4° C. overnight. Each well was washed three times with a buffer solution and then blocked with 2% Bovine Serum Albumin (BSA) for 1 hour at room temperature. After washing with washing buffer solution three times, 100 μl of sample was dispensed into each well and left at room temperature for 2 hours. Detection antibody which was washed 3 times with washing buffer and diluted was dispensed into each well and allowed to react at room temperature for 1 hour and left at room temperature for 1 hour. Thereafter, the secondary HRP conjugated antibody was reacted at room temperature for 30 minutes, washed three times with a washing buffer, and treated with 50 μl of stop solution for each well, and then the optical density was measured at 450 nm with an ELISA microplate leader.

IL-4 = assay: PKC activator-induced IL-4 secretion reduction in EL-4 cells (ELISA); assay type: cell-based, mouse; conditions: sample 100 μg/ml 2 h, then PKC activator 18 h, Table 11
Description: In DMEM (Dulbecco Modified Eagle Medium, Hyclone, Thermo Scientific) medium to which 10% Fetal Bovine Serum was added, EL-4 cells, a mouse lymphoma family, were subcultured at a concentration of 1×10^5 cells/ml, and culture was conducted in a 5% CO2 humidified incubator at 37° C. The cultured EL-4 cells were inoculated into a 48 well plate by 5×10^4 cells/ml and stabilized for 30 hours. Then, the culture solution was treated with a glycerol derivative compounds of the type shown in Table 11 and 12 below for 2 hours. Thereafter, it were treated with 0.5 μg/ml of PKC activator (p10, some kind of PMA) of a cell stimulator, and subsequent further incubation were conducted for 18 hours. Thereafter 0.5 ml of the culture supernatant was collected for each well and centrifuged (at 3000 rpm, 5 minutes) to recover the supernatant. The IL-4 level in the recovered supernatant was measured according to the manual provided by the Mouse IL-4 ELISA set (BD Biosciences). The day before ELISA was carried out, the IL-4 capture antibody was diluted in phosphate buffered saline, coated on a microwell, and then stored at 4° C. overnight. Each well was washed three times with a buffer solution and then blocked with 2% Bovine Serum Albumin (BSA) for 1 hour at room temperature. After washing with buffer solution three times, 100 μl of sample was dispensed into each well and left at room temperature for 2 hours. Detection antibody which was washed 3 times with washing buffer solution and diluted was dispensed into each well and allowed to react at room temperature for 1 hour and left at room temperature for 1 hour. Thereafter, the secondary HRP conjugated antibody was reacted at room temperature for 30 minutes, washed three times with buffer solution, and treated with 50 μl of stop solution for each well, and then the optical density was measured at 450 nm with an ELISA microplate leader. The results of the measured expression reduction rate ([…]) were shown in Table 11, Table 12, FIG. 11 and FIG. 12 below.

[1] = sample 100 μg/ml 1 h, then IL-6 5 ng/ml 24 h

Row | Compound | Number of HL-60 cells migrated through Transwell (HL-60 cells) | STAT6 activity_Luciferase activity (average ± deviation) (STAT6) | IL-6 concentration (average ± deviation) (IL-6) | decrease of STAT3 activity compared to the IL-6 cytokine-treated group (STAT3) | STAT3 activity_SEAP expression(%) (average ± deviation) (STAT3; [1]) | CXCL8 [IL-8] concentration (average ± deviation) (CXCL8 (IL-8)) | reduction of CXCL8 (IL-8) expression/secretion (CXCL8 (IL-8); Gemcitabine-treated, 100 μg/ml) | increase of STAT3 activity compared to the negative control group (STAT3; HEK-Blue IL-6 cells treated with IL-6) | STAT3 activity_SEAP expression(%) (average ± deviation) (STAT3; IL-6 5 ng/ml alone) | IL-4 concentration (average ± deviation) (IL-4)
1 | CCCCC/C=C\C/C=C\CCCCCCCC(=O)OC(COC(=O)CCCCCCCCCCCCCCC)COC(=O)c1ccccc1 (stereo not drawn) [EC_A16] | 26348.9 Cell Number | 964.5 ± 170.3 | 0.238 ± 0.008 µg/mL | about 25% | 171.1 ± 17.5% | 135.1 ± 2.3 pg/µL | – | – | – | –
2 | CCCCC/C=C\C/C=C\CCCCCCCC(=O)OC(COCCC)COC(=O)CCCCCCCCCCCCCCC (stereo not drawn) [EC_A15] | 28884.8 Cell Number | 707.5 ± 51.3 | 0.125 ± 0.003 µg/mL | – | 232.0 ± 50.4% | 73.8 ± 0.0 pg/µL | about 20% | – | – | –
3 | CCCCC/C=C\C/C=C\CCCCCCCC(=O)OC(COC(=O)CCCCCCCCCCCCCCC)COC(=O)C(C)(C)C (stereo not drawn) [EC_A22] | 1181.1 Cell Number | 645.5 ± 111.4 | – | about 25% | 169.5 ± 10.5% | – | – | – | – | –
4 | CCCCC/C=C\C/C=C\CCCCCCCC(=O)OC(COC(=O)CCCCCCCCCCCCCCC)COC(=O)C(C)C (stereo not drawn) [EC_A19] | 14882.8 Cell Number | 898.7 ± 115.9 | 0.204 ± 0.014 µg/mL | – | 162.9 ± 33.2% | 277.9 ± 3.1 pg/µL | – | – | – | –
5 | CCCCC/C=C\C/C=C\CCCCCCCC(=O)OC(COCC)COC(=O)CCCCCCCCCCCCCCC (stereo not drawn) [EC_A14] | – | 539.2 ± 40.3 | 0.277 ± 0.002 µg/mL | – | 185.0 ± 30.0% | – | – | – | – | –
6 | IL-6: IL-6 cytokine used to induce STAT3 activity [reference compound] | – | – | – | – | – | – | – | about 2.3 times | 228.8 ± 17.0% | –
7 | CCCCC/C=C\C/C=C\CCCCCCCC(=O)OC(COC(=O)CN)COC(=O)CCCCCCCCCCCCCCC (stereo not drawn) [EC_A57] | – | – | 0.120 ± 0.002 µg/mL | – | 243.0 ± 29.5% | – | – | – | – | 745.6 ± 8.35 pg/µL
8 | CCCCC/C=C\C/C=C\CCCCCCCC(=O)OC(COC(=O)CCCCCCCCCCCCCCC)COC(=O)C(C)CC (stereo not drawn) [EC_A20] | – | 609.5 ± 197.0 | 0.055 ± 0.001 µg/mL | – | 196.7 ± 35.1% | – | – | – | – | 194.2 ± 47.5 pg/µL
